Laboratory results reported in patent publication US5688640A, “Methods of screening of effectors of endothelin converting enzyme-1” (Board of Regents, The University of Texas System, priority 1994, dated 1997).

B1: ECE-1: novel 758-amino acid polypeptide, bovine endothelin converting enzyme-1 (protein, UniProt P42891 1-754, looked up)
chain: MMSTYKRATLDEEDLVDSLSESDVYPNHLQVNFRGPRNGQRCWAARTPVEKRLVVLVALLAAALVACLAVLGIQYQTRTPSVCLSEACISVTSSILSSMDPTVDPCQDFFTYACGGWIKANPVPDGHSRWGTFSNLWEHNQAIIKHLLENSTASVSEAERKAQVYYRACMNETRIEELKAKPLMELIEKLGGWNITGPWDKDNFQDTLQVVTSHYHTSPFFSVYVSADSKNSNSNVIQVDQSGLGLPSRDYYLNKTENEKVLTGYLNYMVQLGKLLGGGAEDTIRPQMQQILDFETALANITIPQEKRRDEELIYHKVTAAELQTLAPAINWLPFLNTIFYPVEINESEPIVIYDKEYLSKVSTLINSTDKCLLNNYMIWNLVRKTSSFLDQRFQDADEKFMEVMYGTKKTCLPRWKFCVSDTENTLGFALGPMFVKATFAEDSKNIASEIILEIKKAFEESLSTLKWMDEDTRKSAKEKADAIYNMIGYPNFIMDPKELDKVFNDYTAVPDLYFENAMRFFNFSWRVTADQLRKAPNRDQWSMTPPMVNAYYSPTKNEIVFPAGILQAPFYTRSSPNALNFGGIGVVVGHELTHAFDDQGREYDKDGNLRPWWKNSSVEAFKQQTACMVEQYGNYSVNGEPVNGRHTLGENIADNGGLKAAYRAYQNWVKKNGAEQTLPTLGLTNNQLFFLSFAQVWCSVRTPESSHEGLITDPHSPSRFRVIGSISNSKEFSEHFHCPPGSPMNPHHKCEVW
modifications: full-length

Tests used:
[1] = ET-1(1-20) and ET-1(1-22) relative to authentic ET-1(1-21); cited from earlier work
[2] = biological target: T1, ECE-1 (Bos taurus, UniProt P42891); assay: Secretion of big and mature ET-1 by preproET-1-transfected CHO/ECE-1 cells (conversion of endogenous big ET-1); type: cell-based, bovine; conditions: preproET-1-transfected CHO/ECE-1 cells
T1 construct: The entire coding regions from bovine ECE-1; made in house
T1 sequence (P42891 with tags, fused parts or gaps A87G/A695G limits assumed): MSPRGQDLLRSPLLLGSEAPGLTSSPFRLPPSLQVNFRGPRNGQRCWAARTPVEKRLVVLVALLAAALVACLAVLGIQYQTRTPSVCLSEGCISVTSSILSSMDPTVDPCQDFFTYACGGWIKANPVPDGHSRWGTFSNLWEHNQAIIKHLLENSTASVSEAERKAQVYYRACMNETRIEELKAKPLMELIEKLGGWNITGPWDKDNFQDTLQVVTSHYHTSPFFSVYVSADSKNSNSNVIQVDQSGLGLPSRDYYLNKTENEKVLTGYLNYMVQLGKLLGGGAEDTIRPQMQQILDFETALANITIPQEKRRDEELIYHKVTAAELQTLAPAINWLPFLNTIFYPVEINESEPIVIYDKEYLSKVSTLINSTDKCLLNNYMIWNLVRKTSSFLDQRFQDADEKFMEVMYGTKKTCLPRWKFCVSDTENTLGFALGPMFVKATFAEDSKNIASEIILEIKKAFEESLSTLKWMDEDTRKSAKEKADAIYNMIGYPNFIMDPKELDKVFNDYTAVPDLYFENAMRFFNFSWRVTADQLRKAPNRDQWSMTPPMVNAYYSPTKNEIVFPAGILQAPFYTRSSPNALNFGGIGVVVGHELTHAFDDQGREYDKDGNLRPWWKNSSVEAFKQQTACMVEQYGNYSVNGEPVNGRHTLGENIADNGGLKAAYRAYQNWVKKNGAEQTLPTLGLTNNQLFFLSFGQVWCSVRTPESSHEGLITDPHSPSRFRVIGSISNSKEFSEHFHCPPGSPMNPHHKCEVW
Procedure: Transient transfection of the preproET-1 cDNA was performed by the DEAE-dextran method as described (Sakurai et al., 1990). Twelve hours after transfection, cells were refed with fresh medium with or without ECE inhibitors. The medium was conditioned for an additional 12 hours and directly subjected to EIA for mature and big ET-1 (Suzuki et al., 1990; Suzuki et al., 1989). For the Ca^2+ transient bioassay (see below), Phenol Red-free CHO-SFM medium (Gibco/BRL) without serum was used in order to avoid artefacts induced by serum and the dye.
To examine whether the expressed ECE-1 can convert big ET-1 in intact cells, paired cultures of CHO/ECE-1 cells and untransfected CHO cells were transiently transfected with the preproET-1 construct. After the transient transfection, the amounts of mature and big ET-1 secreted into the medium were measured by EIA. […] The functional authenticity of the immunoreactive mature peptide produced from the double-transfected cells was examined with a bioassay system that uses another line of CHO cells expressing human ETA receptors as reporter cells. […] The cells were loaded with the Ca^2+ indicator Fura-2/AM, and directly challenged with serum-free, Phenol Red-free culture supernatants from the aforementioned double-transfection protocols. […] Next the supernatants from the preproET-1-transfected CHO/ECE-1 cells were added, so that the final concentration of ET-1 as measured by EIA was ≈20 pM.

[3] = tested on: NEP; conditions: cited from earlier work
[4] = biological target: T1, ECE-1; assay: pH profile of ECE-1 activity in solubilized CHO/ECE-1 membranes; type: biochemical, bovine
Procedure: FIG. 2C. pH profile of ECE-1 activity expressed in solubilized CHO/ECE-1 membranes.
Reaction mixtures for ECE assay (50 μl) contained 0.1M sodium phosphate buffer (pH 6.8), 0.5M NaCl, 0.1 μM human big ET-1(1-38) and enzyme fraction. For some studies, the reactions were preincubated at 37° C. with various protease inhibitors for 15 minutes prior to the addition of big ET-1. The reactions were incubated at 37° C. for 30 min in siliconized 0.5-ml microcentrifuge tubes. […] Duplicate assay wells were used for each enzyme reaction. Protein concentration was determined by the Bradford method (Bio-Rad) using IgG as standard.

| Molecule | vasoconstrictor/biological activity (in words) [1] | concentration secreted in culture supernatant [2] [pM] | degradation by NEP (in words) [3] | optimal pH of ECE activity [4] |
| --- | --- | --- | --- | --- |
| mature ET-1: 21-residue mature peptide; human ET-1(1-21) obtained from American Peptides | the most potent vasoconstrictor substance known | 241 | rapidly degrades | – |
| B1 | – | – | – | 6.8 |
